Data as given in patent US20060216362A1, “Remedy” (priority 2003, published 2006).

How the values were obtained:
Type in all cases: cell-based
[1] = tested on: mature adipocytes (3T3-L1 cells); assay: Glucose uptake enhancement inhibited by cytochalasin B (glucose transporter inhibitor)
Description: The influence of cytochalasin B on 2-deoxyglucose uptake into mature adipocytes stimulated with the sample in the adipocytes was tested in accordance with the method described in Example 17 on whether or not the enhancing action of the ethanol extract fraction from Polygonum hydropiper obtained in Example 15 on glucose uptake is inhibited by cytochalasin B, which is an inhibitor of a glucose transporter.
Specifically, as a sample, there was set a group with addition of a dimethyl sulfoxide solution of the ethanol extract fraction from Polygonum hydropiper so as to have a final concentration of 0.05% to a well (treatment for a short period of time). There were set a group without addition of the sample as a negative control, and a group with addition of insulin so as to have a final concentration of 1 μg/mL as a positive control. Furthermore, in each group, there was set a group with addition of cytochalasin B (manufactured by Nacalai Tesque, Inc., 10435-81) so as to have a final concentration of 40 μM at the same time as the time of addition of insulin or the sample. Thereafter, the amount of 2-deoxy-[1,2^3H(N)]-glucose taken into the adipocytes was determined in the same manner.

[2] = tested on: mature adipocytes (3T3-L1 cells); assay: Synergistic action of ethanol extract fraction and low-concentration insulin to enhance glucose uptake; conditions: insulin alone, final concentration 0.01 μg/mL, 30 minutes; vs negative control
Description: As the evaluation of synergistic action of the ethanol extract fraction from Polygonum hydropiper prepared in Example 15 and a low-concentration insulin to enhance glucose uptake, the amount of 2-deoxyglucose uptake into mature adipocytes stimulated with the sample (the above-mentioned extract fraction from Polygonum hydropiper and insulin) was determined partly in accordance with the method described in Example 17. The mature adipocytes were prepared in accordance with the method described in Example 3.
After the termination of the culture, the medium was removed, and the cells were washed twice with a 0.1% (w/v) bovine serum albumin-containing Dulbecco's modified Eagle's medium. Thereafter, the cells were cultured overnight at 37° C. in the presence of 5% carbon dioxide gas. After the overnight culture, the cells were washed twice with a HEPES buffered saline (140 mM NaCl, 5 mM KCl, 2.5 mM MgSO4, 1 mM CaCl2, 20 mM HEPES-Na (pH 7.4)). The amount 0.9 mL of the same buffer was added thereto, and the cells were cultured at 37° C. for 45 minutes. […] Thereafter, 2-deoxy-[1,2-3H(N)]-glucose taken into the adipocytes was determined in the same manner as the method described in Example 3.

[3] = tested on: Preadipocyte cell line 3T3-L1; assay: Induction of differentiation into adipocytes, determined as amount of biosynthesis of triglyceride; conditions: positive control, 4 μl then 2 μl of a 5 mg/ml aqueous solution per 2 ml well
Excerpt: There have been known that insulin enhances induction of differentiation of preadipocytes into adipocytes, and that glucose uptake takes place in matured adipocytes thereby accumulating triglyceride in the adipocytes (J. Biol. Chem., Vol. 253, No. 20, P7570-7578 (1978)). Specifically, utilizing this method, an insulin-mimetic action of a test substance can be determined by administering a test substance in place of insulin, and determining differentiation into an adipocyte and the amount of triglyceride in the adipocytes.
The induction of differentiation into adipocytes was carried out by partially modifying the above-mentioned method of Rubin C. S. et al. (J. Biol. Chem., Vol. 253, No. 20, P7570-7578 (1978)). Preadipocyte cell line 3T3-L1 (ATCC CCL-92.1) was suspended in a 10% fetal bovine serum (manufactured by GIBCO)-containing Dulbecco's modified Eagle's medium (manufactured by Sigma, D6046) containing 200 μM ascorbic acid (hereinafter referred to as A-D-MEM medium) so as to have a density of 4×10^3 cells/ml, and the suspension was put in each well of a 12-well microtiter plate in an amount of 2 ml per well. The cells were cultured at 37° C. for 7 days in the presence of 5% carbon dioxide gas. […]
The amount of triglyceride in the adipocytes was determined as an index for inducing differentiation into matured adipocytes, and as evaluation of insulin-mimetic action. […]

[4] = tested on: mature adipocytes (3T3-L1 cells); assay: Enhancing action on glucose uptake: 2-deoxy-[1,2-3H(N)]-glucose uptake into mature adipocytes; conditions: positive control, final concentration 1 μg/mL, added when 45 minutes passed; vs negative control
Excerpt: In addition, there have been known that insulin has an enhancing action on glucose uptake into a cell, and that glucose uptake into the cell is enhanced by the action of insulin in a matured adipocyte (J. Biol. Chem., Vol. 253, No. 20, P7579-7583 (1978)). Specifically, utilizing this method, an insulin-mimetic action of a test substance can be determined by administering a test substance in place of insulin, and determining the amount of glucose uptake into a matured adipocyte.
The induction of differentiation into mature adipocytes was carried out by partially modifying the method of Rubin C. S. et al. 3T3-L1 cells were suspended in a 10% fetal bovine serum-containing Dulbecco's modified Eagle's medium (manufactured by Sigma, D6046) containing 200 μM ascorbic acid so as to have a density of 4×10^3 cells/ml, and the suspension was put in each well of a 12-well microtiter plate in an amount of 2 ml per well. The cells were cultured at 37° C. for 7 days in the presence of 5% carbon dioxide gas. […]
As the evaluation of enhancing action on glucose uptake, and also as the evaluation of insulin-mimetic action, the amount of 2-deoxyglucose uptake into mature adipocytes stimulated with the sample (the above-mentioned extract fraction from Corchorus olitorius) in the adipocytes was determined. […]

Compound	effect on 2-deoxy-[1,2-3H(N)]-glucose uptake ([1]; cytochalasin B 40 μM added at the same time as insulin or sample, in every group)	enhancement of 2-deoxy-[1,2-3H(N)]-glucose uptake [2]	induction of triglyceride biosynthesis (differentiation into adipocytes) [3]	enhancement of 2-deoxy-[1,2-3H(N)]-glucose uptake [4]	enhancement of 2-deoxy-[1,2-3H(N)]-glucose uptake ([1]; positive control, final concentration 1 μg/mL, without cytochalasin B, vs negative control)
C=C1[C@@H](C)[C@H]2[C@H](Cc3ccccc3)NC(=O)[C@]23OC(=O)/C=C/[C@H](O)CCC[C@@H](C)C/C=C/[C@H]3[C@@H]1O [cytochalasin B]	almost completely inhibited	–	–	–	–
insulin	–	enhancement of 2-deoxy-[1,2^3H(N)]-glucose uptake was found	induction of triglyceride biosynthesis could be also confirmed	enhancement of 2-deoxy-[1,2^3H(N)]-glucose uptake was found	enhancement of 2-deoxy-[1,2^3H(N)]-glucose uptake was found
